Patent publication US20240018128A1, “PESTICIDALLY ACTIVE HETEROCYCLIC DERIVATIVES WITH SULFUR CONTAINING SUBSTITUENTS” (SYNGENTA CROP PROTECTION AG, priority 2020, published 2024)

Assays:
Assay type in all cases: in vivo
[1] = test system: Spodoptera littoralis (Egyptian cotton leaf worm); assay: Example B6: Activity against Spodoptera littoralis (Egyptian cotton leaf worm); conditions: foliar, 72 h, application rate 200 ppm, cotton leaf discs sprayed, L1 larvae, 3 days after infestation, read-out: control (mortality, anti-feeding effect or growth inhibition)
Procedure: Example B6: Activity Against Spodoptera littoralis (Egyptian Cotton Leaf Worm)
Cotton leaf discs were placed onto agar in 24-well microtiter plates and sprayed with aqueous test solutions prepared from 10,000 ppm DMSO stock solutions. After drying the leaf discs were infested with five L1 larvae. The samples were assessed for mortality, anti-feeding effect, and growth inhibition in comparison to untreated samples 3 days after infestation. Control of Spodoptera littoralis by a test sample is given when at least one of the categories mortality, anti-feedant effect, and growth inhibition is higher than the untreated sample.

[2] = test system: Chilo suppressalis (striped rice stemborer); assay: Example B8: Activity against Chilo suppressalis (striped rice stemborer); conditions: 144 h, application rate 200 ppm, artificial diet treated by pipetting, L2 larvae, 6 days after infestation, read-out: control (mortality, anti-feeding effect or growth inhibition)
Procedure: Example B8: Activity Against Chilo suppressalis (Striped Rice Stemborer)
24-well microtiter plates with artificial diet were treated with aqueous test solutions prepared from 10,000 ppm DMSO stock solutions by pipetting. After drying, the plates were infested with L2 larvae (6-8 per well). The samples were assessed for mortality, anti-feeding effect, and growth inhibition in comparison to untreated samples 6 days after infestation. Control of Chilo suppressalis by a test sample is given when at least one of the categories mortality, anti-feedant effect, and growth inhibition is higher than the untreated sample.

[3] = test system: Euschistus heros (neotropical brown stink bug); assay: Example B2: Activity against Euschistus heros (neotropical brown stink bug); conditions: 120 h, application rate 200 ppm, soybean leaves sprayed, N2 nymphs, 5 days after infestation, read-out: effect in at least one of the two categories (mortality or growth inhibition)
Procedure: Example B2: Activity Against Euschistus heros (Neotropical Brown Stink Bug)
Soybean leaves on agar in 24-well microtiter plates were sprayed with aqueous test solutions prepared from 10,000 ppm DMSO stock solutions. After drying the leaves were infested with N2 nymphs. The samples were assessed for mortality and growth inhibition in comparison to untreated samples 5 days after infestation.

[4] = test system: Plutella xylostella (diamond back moth); assay: Example B5: Activity against Plutella xylostella (diamond back moth); conditions: 192 h, application rate 200 ppm, artificial diet treated by pipetting, eggs, 8 days after infestation, read-out: effect in at least one of the two categories (mortality or growth inhibition)
Procedure: Example B5: Activity Against Plutella xylostella (Diamond Back Moth)
24-well microtiter plates with artificial diet were treated with aqueous test solutions prepared from 10,000 ppm DMSO stock solutions by pipetting. After drying, Plutella eggs were pipetted through a plastic stencil onto a gel blotting paper and the plate was closed with it. The samples were assessed for mortality and growth inhibition in comparison to untreated samples 8 days after infestation. The following compounds gave an effect of at least 80% in at least one of the two categories (mortality or growth inhibition) at an application rate of 200 ppm: P1, P2, P4, P5, P6, P7, P9, P10, P11, P12, P13, P14, P15, P16, P17, P18.

[5] = test system: Diabrotica balteata (corn root worm); assay: Example B1: Activity against Diabrotica balteata (corn root worm); conditions: 96 h, application rate 200 ppm, maize sprouts sprayed, L2 larvae, 4 days after infestation, read-out: effect in at least one of the two categories (mortality or growth inhibition)
Procedure: Example B1: Activity Against Diabrotica Balteata (Corn Root Worm)
Maize sprouts placed onto an agar layer in 24-well microtiter plates were treated with aqueous test solutions prepared from 10,000 ppm DMSO stock solutions by spraying. After drying, the plates were infested with L2 larvae (6 to 10 per well). The samples were assessed for mortality and growth inhibition in comparison to untreated samples 4 days after infestation.

[6] = test system: Myzus persicae (green peach aphid); assay: Example B4: Activity against Myzus persicae (green peach aphid), feeding/contact activity; conditions: foliar, 144 h, application rate 200 ppm, sunflower leaf discs sprayed, aphid population of mixed ages, 6 days after infestation
Procedure: Example B4: Activity Against Myzus persicae (Green Peach Aphid) Feeding/Contact Activity
Sunflower leaf discs were placed onto agar in a 24-well microtiter plate and sprayed with aqueous test solutions prepared from 10,000 ppm DMSO stock solutions. After drying, the leaf discs were infested with an aphid population of mixed ages. The samples were assessed for mortality 6 days after infestation.

[7] = test system: Frankliniella occidentalis (western flower thrips); assay: Example B3: Activity against Frankliniella occidentalis (western flower thrips), feeding/contact activity; conditions: foliar, 168 h, application rate 200 ppm, sunflower leaf discs sprayed, population of mixed ages, 7 days after infestation
Procedure: Example B3: Activity Against Frankliniella occidentalis (Western Flower Thrips) Feeding/Contact Activity
Sunflower leaf discs were placed on agar in 24-well microtiter plates and sprayed with aqueous test solutions prepared from 10,000 DMSO stock solutions. After drying the leaf discs were infested with a Frankliniella population of mixed ages. The samples were assessed for mortality 7 days after infestation.

[8] = test system: Myzus persicae (green peach aphid); assay: Example B9: Activity against Myzus persicae (green peach aphid), systemic activity; conditions: 144 h, test rate 24 ppm, roots of infested pea seedlings placed into test solution, 6 days
Procedure: Example B9: Activity Against Myzus persicae (Green Peach Aphid). Systemic Activity
Roots of pea seedlings infested with an aphid population of mixed ages were placed directly into aqueous test solutions prepared from 10,000 DMSO stock solutions. The samples were assessed for mortality 6 days after placing seedlings into test solutions.

[9] = test system: Bemisia tabaci (cotton white fly); assay: Example B7: Activity against Bemisia tabaci (cotton white fly), feeding/contact activity; conditions: foliar, 144 h, application rate 200 ppm, cotton leaf discs sprayed, adult white flies, 6 days after incubation
Procedure: Example B7: Activity Against Bemisia tabaci (Cotton White Fly) Feeding/Contact Activity
Cotton leaf discs were placed on agar in 24-well microtiter plates and sprayed with aqueous test solutions prepared from 10,000 ppm DMSO stock solutions. After drying the leaf discs were infested with adult white flies. The samples were checked for mortality 6 days after incubation.

CCS(=O)(=O)c1c(N2Cc3ccc(OC(F)(F)F)cc3C2=O)nc(-c2cnn(C3CC3)c2)n1C [Compound P1, 2-[2-(1-cyclopropylpyrazol-4-yl)-5-ethylsulfonyl-1-methyl-imidazol-4-yl]-6-(trifluoromethoxy)isoindolin-1-one]
≥ 80%: control at 200 ppm [1] | control at 200 ppm [2] | percent effect (mortality or growth inhibition) at 200 ppm [3] | effect (mortality or growth inhibition) at 200 ppm [4] | mortality or growth inhibition at 200 ppm [5] | mortality at 200 ppm [6] | mortality at 200 ppm [7]

CCS(=O)(=O)c1c(N2Cc3ncc(C(F)(F)F)cc3C2=O)nc(-c2cnn(CC(F)(F)F)c2)n1C [Compound P10, 6-[5-ethylsulfonyl-1-methyl-2-[1-(2,2,2-trifluoroethyl)pyrazol-4-yl]imidazol-4-yl]-3-(trifluoromethyl)-7H-pyrrolo[3,4-b]pyridin-5-one]
≥ 80%: control at 200 ppm [1] | control at 200 ppm [2] | percent effect (mortality or growth inhibition) at 200 ppm [3] | effect (mortality or growth inhibition) at 200 ppm [4] | mortality or growth inhibition at 200 ppm [5] | mortality at 200 ppm [6] | mortality at 24 ppm [8]

CCS(=O)(=O)c1c(N2Cc3ncc(C(F)(F)F)cc3C2=O)nc(-c2cnn(C(F)F)c2)n1C [Compound P13, 6-[2-[1-(difluoromethyl)pyrazol-4-yl]-5-ethylsulfonyl-1-methyl-imidazol-4-yl]-3-(trifluoromethyl)-7H-pyrrolo[3,4-b]pyridin-5-one]
≥ 80%: control at 200 ppm [1] | control at 200 ppm [2] | percent effect (mortality or growth inhibition) at 200 ppm [3] | effect (mortality or growth inhibition) at 200 ppm [4] | mortality or growth inhibition at 200 ppm [5] | mortality at 200 ppm [6] | mortality at 24 ppm [8]

CCS(=O)(=O)c1c(N2Cc3ncc(C(F)(F)F)cc3C2=O)nc(C2CC2)n1C [Compound P17, 6-(2-cyclopropyl-5-ethylsulfonyl-1-methyl-imidazol-4-yl)-3-(trifluoromethyl)-7H-pyrrolo[3,4-b]pyridin-5-one]
≥ 80%: control at 200 ppm [1] | mortality at 200 ppm [9] | control at 200 ppm [2] | effect (mortality or growth inhibition) at 200 ppm [4] | mortality or growth inhibition at 200 ppm [5] | mortality at 200 ppm [6] | mortality at 24 ppm [8]
